Test results taken from US12605539B2, “Methods and systems for delivering drugs through skin of a body” (PASSPORT TECHNOLOGIES, INC., priority 2019, dated 2026).

Key:
Assay type in all cases: in vivo, hairless Guinea pigs
[1] = Blood concentration of polysaccharide (Fondaparinux) after microporation patch (FIG. 13); settings: 4 ms pulses
Method: The patch 102 used for FIG. 13 graphs 1300 and 1320 has a nonwoven matrix, a thickness of 180 μm, weight of 18 g/m^2, WHC of 17 mg/cm^2, a drug of 0.01 mg/cm^2, and a total solids level of 6.1 mg/cm^2. An energy pulse of 6.3 mJ and 5.2 mJ per filament to create between about 200 and 400 pathways via microporation having a 1 cm^2 treated area of between about 5 and 10% per square centimeter of skin, respectively.
(§1) The graph 1300 includes the concentration of the polysacharride (for example, Fondaparinux) in micrograms/milliliter (μg/mL) along the y-axis and time in hours (hr) along the x-axis. […] The line 1302 represents the patch 102 having a formulation of 2.5 mg of the polysacharride applied with the patch 102 and microporation parameters described above. The line 1304 represents the patch 102 having a formulation of 5.0 mg of the polysacharride applied with the patch 102 and microporation parameters described above. The line 1306 represents the patch 102 having a formulation of 7.5 mg of the polysacharride applied with the patch 102 and microporation parameters described above. Each of the three lines 1302, 1304, and 1306 follow the same general trend of increasing to a peak concentration value and then gradually decreasing in concentration. The line 1306 has the highest concentration values, followed by line 1304 and then line 1302.
as §1, with “1320” for “1300”, “1322” for “1302”, “1324” for “1304”, “1326” for “1306”, “1322, 1324,” for “1302, 1304,”, “1322.” for “1302.”

[2] = Blood concentration of peptide (Teriparatide) after microporation patch (FIG. 17); settings: hairless, guinea pig, topical, API 0.2 mg/cm^2 + 0.5 mg sucrose; for bioavailability: read-out: bioavailability (BA); for Cmax: read-out: maximum concentration (Cmax)
Method: Table 15 identifies two groups (group 4 and group 6) that both use stainless steel filaments 200 and create 200 and 400 pathways, respectively, having applied an energy pulse of 9.3 mJ per filament with a treated area of about 10% per square centimeter of skin for 0.5 cm2 and 1.0 cm^2, respectively. The patch 102 used for the administration of the peptide shown in graph 1700 has a thickness of 38 μm, a weight of 12 g/m^2, a WHC of 4 mg/cm^2, an API of 0.2 mg/cm^2, and a total solid weight of about 0.7 mg/cm^2.
The graph 1700 includes the concentration of the peptide in ng/mL along the y-axis and time in hours (hr) along the x-axis. […] The line 1702 represents the patch 102 and microporation parameters of group 4 described above. The line 1704 represents the patch 102 and microporation parameters of group 6 described above.

[3] = Blood concentration of Somatropin after microporation patch (FIG. 18); settings: patch 0.5 mg, 1.0 cm^2
From the text: The microporation occurs according to the parameters in Table 17. […] 200 Wide filaments are double the width of standard one (2×50 micrometers) so the energy pulse of 5.2 mJ and 9.3 mJ per filament, thus providing the same current density/flux, and similar power used.
The graph 1800 includes the concentration of the peptide in ng/mL along the y-axis and time in hours (hr) along the x-axis. […] The line 1802 represents the group 1 parameters from Tables 17 and 18. The line 1804 represents the group 2 parameters from Tables 17 and 18. The line 1806 represents the group 3 parameters from Tables 17 and 18. The line 1808 represents the group 4 parameters from Tables 17 and 18. Each of the four lines 1802, 1804, 1806, and 1808 follow the same general trend of increasing to a peak concentration value and then gradually decreasing in concentration. The line 1808 generally has the highest concentration values, followed by line 1802, then line 1804, and finally line 1806. It is noted that the line 1804 exceeds line 1806 from between about 2 hours to about 3 hours.

[4] = 0.2 mg/cm^2, group 4: 200 pores, 0.5 cm^2, 9.3 mJ/filament
[5] = 0.2 mg/cm^2, group 6: 400 pores, 1.0 cm^2, 9.3 mJ/filament
[6] = group 1: 400 pores, 5.7 mJ/filament (Table 17)
[7] = group 2: 400 pores, 9.3 mJ/filament
[8] = group 3: 200 wide pores, 5.2 mJ/filament
[9] = group 4: 200 wide pores, 9.3 mJ/filament

CO[C@H]1O[C@H](COS(=O)(=O)O)[C@@H](O[C@@H]2O[C@@H](C(=O)O)[C@@H](O[C@H]3O[C@H](COS(=O)(=O)O)[C@@H](O[C@@H]4O[C@H](C(=O)O)[C@@H](O[C@H]5O[C@H](COS(=O)(=O)O)[C@@H](O)[C@H](O)[C@H]5NS(=O)(=O)O)[C@H](O)[C@H]4O)[C@H](OS(=O)(=O)O)[C@H]3NS(=O)(=O)O)[C@H](O)[C@H]2OS(=O)(=O)O)[C@H](O)[C@H]1NS(=O)(=O)O [Fondaparinux]
area under the curve (AUC) ([1]; patch 2.5 mg, 200 pathways): 72.8 µg·h/mL | bioavailability ([1]; patch 2.5 mg, 200 pathways): 170.9% | maximum concentration ([1]; patch 2.5 mg, 200 pathways): 5.1 µg/mL | AUC ([1]; patch 2.5 mg, 400 pathways): 97.3 µg·h/mL | bioavailability ([1]; patch 2.5 mg, 400 pathways): 228.5% | maximum concentration ([1]; patch 2.5 mg, 400 pathways): 8.0 µg/mL | AUC ([1]; patch 5.0 mg, 200 pathways): 100.9 µg·h/mL | bioavailability ([1]; patch 5.0 mg, 200 pathways): 118.4% | maximum concentration ([1]; patch 5.0 mg, 200 pathways): 6.7 µg/mL | AUC ([1]; patch 5.0 mg, 400 pathways): 125.2 µg·h/mL | bioavailability ([1]; patch 5.0 mg, 400 pathways): 146.9% | maximum concentration ([1]; patch 5.0 mg, 400 pathways): 10.5 µg/mL | AUC ([1]; patch 7.5 mg, 200 pathways): 152.3 µg·h/mL | bioavailability ([1]; patch 7.5 mg, 200 pathways): 119.2% | maximum concentration ([1]; patch 7.5 mg, 200 pathways): 9.1 µg/mL | AUC ([1]; patch 7.5 mg, 400 pathways): 145.8 µg·h/mL | bioavailability ([1]; patch 7.5 mg, 400 pathways): 114.1% | maximum concentration ([1]; patch 7.5 mg, 400 pathways): 11.5 µg/mL

CC[C@H](C)[C@H](NC(=O)[C@H](CCC(=O)O)NC(=O)[C@H](CO)NC(=O)[C@@H](NC(=O)[C@@H](N)CO)C(C)C)C(=O)N[C@@H](CCC(N)=O)C(=O)N[C@@H](CC(C)C)C(=O)N[C@@H](CCSC)C(=O)N[C@@H](Cc1cnc[nH]1)C(=O)N[C@@H](CC(N)=O)C(=O)N[C@@H](CC(C)C)C(=O)NCC(=O)N[C@@H](CCCCN)C(=O)N[C@@H](Cc1cnc[nH]1)C(=O)N[C@@H](CC(C)C)C(=O)N[C@@H](CC(N)=O)C(=O)N[C@@H](CO)C(=O)N[C@@H](CCSC)C(=O)N[C@@H](CCC(=O)O)C(=O)N[C@@H](CCCN=C(N)N)C(=O)N[C@H](C(=O)N[C@@H](CCC(=O)O)C(=O)N[C@@H](Cc1c[nH]c2ccccc12)C(=O)N[C@@H](CC(C)C)C(=O)N[C@@H](CCCN=C(N)N)C(=O)N[C@@H](CCCCN)C(=O)N[C@@H](CCCCN)C(=O)N[C@@H](CC(C)C)C(=O)N[C@@H](CCC(N)=O)C(=O)N[C@@H](CC(=O)O)C(=O)N[C@H](C(=O)N[C@@H](Cc1cnc[nH]1)C(=O)N[C@@H](CC(N)=O)C(=O)N[C@@H](Cc1ccccc1)C(=O)O)C(C)C)C(C)C [Teriparatide]
AUC [2, 4]: 3260 ng·h/mL | bioavailability [2, 4]: 37.4% | Cmax [2, 4]: 9.16 ng/mL | AUC [2, 5]: 2210 ng·h/mL | bioavailability [2, 5]: 25.4% | Cmax [2, 5]: 11.2 ng/mL

Somatropin
AUC [3, 6]: 87.1 ng·h/mL | Cmax [3, 6]: 20.4 ng/mL | Tmax [3, 6]: 1.3 h | bioavailability (BA) [3, 6]: 35.8% | AUC [3, 7]: 90.1 ng·h/mL | Cmax [3, 7]: 16.1 ng/mL | Tmax [3, 7]: 1.8 h | bioavailability (BA) [3, 7]: 37.0% | AUC [3, 8]: 78.1 ng·h/mL | Cmax [3, 8]: 16.4 ng/mL | Tmax [3, 8]: 1.5 h | bioavailability (BA) [3, 8]: 32.1% | AUC [3, 9]: 94.9 ng·h/mL | Cmax [3, 9]: 22.6 ng/mL | Tmax [3, 9]: 1.5 h | bioavailability (BA) [3, 9]: 39.0%
